Data reported in PubChem BioAssay (NCI).
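Five compound concentrations were applied to cells in 96-well plates for 48 hours; endpoints were derived by simple linear interpolation of the resulting dose-response curve. Abbreviation: GI50, concentration required for 50% inhibition of growth. TGI: total growth inhibition.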

Tests used:
Test in all cases: growth of human tumour cells (NCI), 48 h
[1] = tested on: SN12C renal
[2] = tested on: CCRF-CEM leukemia
[3] = tested on: OVCAR-5 ovarian
[4] = tested on: 786-0 renal
[5] = tested on: MALME-3M melanoma
[6] = tested on: PC-3 prostate
[7] = tested on: DU-145 prostate
[8] = tested on: SK-MEL-28 melanoma
[9] = tested on: A498 renal
[10] = tested on: BT-549 breast
[11] = tested on: RPMI-8226 leukemia
[12] = tested on: HCC-2998 colon
[13] = tested on: RXF 393 renal
[14] = tested on: UACC-257 melanoma
[15] = tested on: HCT-15 colon
[16] = tested on: UO-31 renal
[17] = tested on: SNB-19 CNS
[18] = tested on: ACHN renal
[19] = tested on: K-562 leukemia
[20] = tested on: MOLT-4 leukemia
[21] = tested on: LOX IMVI melanoma
[22] = tested on: KM12 colon
[23] = tested on: NCI-H460 lung
[24] = tested on: SF-268 CNS
[25] = tested on: HOP-92 NSCLC
[26] = tested on: MCF7 breast
[27] = tested on: UACC-62 melanoma
[28] = tested on: M14 melanoma
[29] = tested on: MDA-MB-468 breast
[30] = tested on: OVCAR-4 ovarian
[31] = tested on: IGROV1 ovarian
[32] = tested on: SF-539 CNS
[33] = tested on: HCT-116 colon
[34] = tested on: TK-10 renal
[35] = tested on: MDA-MB-435
[36] = tested on: OVCAR-8 ovarian
[37] = tested on: COLO 205 colon
[38] = tested on: OVCAR-3 ovarian
[39] = tested on: A549 NSCLC
[40] = tested on: CAKI-1 renal
[41] = tested on: SNB-75 CNS
[42] = tested on: HOP-62 NSCLC
[43] = tested on: MDA-MB-231 breast
[44] = tested on: SK-MEL-2 melanoma
[45] = tested on: HT29 colon
[46] = tested on: SW-620 colon
[47] = tested on: U251 CNS
[48] = tested on: SF-295 CNS
[49] = tested on: SK-OV-3 ovarian
[50] = tested on: NCI-H226 lung
[51] = tested on: EKVX NSCLC
[52] = tested on: NCI-H522 lung
[53] = tested on: HS 578T breast
[54] = tested on: SK-MEL-5 melanoma
[55] = tested on: HL-60(TB) leukemia
[56] = tested on: T-47D breast
[57] = tested on: NCI/ADR-RES ovarian
[58] = tested on: NCI-H23 lung

O=C(c1ccc(OCCN2CCOCC2)cc1)C1[C@H](c2ccc(Cl)cc2)[C@@H](c2ccccc2)NC12C(=O)Nc1ccc(Br)cc12 (some centres not stated)
GI50 [1]: 2.35 µM | TGI [1]: 4.53 µM | GI50 [2]: 4.42 µM | TGI [2]: 12.8 µM | GI50 [3]: 2.95 µM | TGI [3]: 9.56 µM | GI50 [4]: 2.95 µM | TGI [4]: 6.69 µM | GI50 [5]: 2.39 µM | TGI [5]: 5.09 µM | GI50 [6]: 2.96 µM | TGI [6]: 9.34 µM | GI50 [7]: 3.91 µM | TGI [7]: 11.8 µM | GI50 [8]: 2.7 µM | TGI [8]: 5.08 µM | GI50 [9]: 3.05 µM | TGI [9]: 7.55 µM | GI50 [10]: 3.44 µM | TGI [10]: 8.33 µM | GI50 [11]: 4.05 µM | TGI [11]: 16.1 µM | GI50 [12]: 2.61 µM | TGI [12]: 5.37 µM | GI50 [13]: 1.84 µM | TGI [13]: 4.57 µM | GI50 [14]: 3.69 µM | TGI [14]: 13 µM | GI50 [15]: 2.69 µM | TGI [15]: 6.23 µM | GI50 [16]: 2.57 µM | TGI [16]: 7.86 µM | GI50 [17]: 4.46 µM | TGI [17]: > 16.3 µM | GI50 [18]: 3.84 µM | TGI [18]: 14.3 µM | GI50 [19]: 3.87 µM | TGI [19]: > 16.3 µM | GI50 [20]: 2.9 µM | TGI [20]: 10.2 µM | GI50 [21]: 2.43 µM | TGI [21]: 4.59 µM | GI50 [22]: 2.98 µM | TGI [22]: 7.26 µM | GI50 [23]: 2.8 µM | TGI [23]: 5.59 µM | GI50 [24]: 3.66 µM | TGI [24]: > 16.3 µM | GI50 [25]: 2.35 µM | TGI [25]: 6.69 µM | GI50 [26]: 2.92 µM | TGI [26]: 10.2 µM | GI50 [27]: 2.22 µM | TGI [27]: 4.46 µM | GI50 [28]: 2.56 µM | TGI [28]: 5.44 µM | GI50 [29]: 2.83 µM | TGI [29]: 7.65 µM | GI50 [30]: 4.33 µM | TGI [30]: > 16.3 µM | GI50 [31]: 3.32 µM | TGI [31]: 9.74 µM | GI50 [32]: 2.73 µM | TGI [32]: 5.19 µM | GI50 [33]: 2.63 µM | TGI [33]: 5.45 µM | GI50 [34]: 3.62 µM | TGI [34]: 11.1 µM | GI50 [35]: 3.17 µM | TGI [35]: 7.28 µM | GI50 [36]: 4.37 µM | TGI [36]: > 16.3 µM | GI50 [37]: 2.52 µM | TGI [37]: 4.93 µM | GI50 [38]: 2.56 µM | TGI [38]: 6.91 µM | GI50 [39]: 4.27 µM | TGI [39]: > 16.3 µM | GI50 [40]: 3 µM | TGI [40]: > 16.3 µM | GI50 [41]: 2.37 µM | TGI [41]: > 16.3 µM | GI50 [42]: 2.83 µM | TGI [42]: 6.58 µM | GI50 [43]: 2.66 µM | TGI [43]: 5.09 µM | GI50 [44]: 2.32 µM | TGI [44]: 4.8 µM | GI50 [45]: 2.49 µM | TGI [45]: 5.38 µM | GI50 [46]: 2.78 µM | TGI [46]: 5.68 µM | GI50 [47]: 2.6 µM | TGI [47]: 5.52 µM | GI50 [48]: 2.4 µM | TGI [48]: 4.94 µM | GI50 [49]: 4.46 µM | TGI [49]: > 16.3 µM | GI50 [50]: 2.94 µM | TGI [50]: 7.82 µM | GI50 [51]: 2.71 µM | TGI [51]: 11.2 µM | GI50 [52]: 3.39 µM | TGI [52]: 8.58 µM | GI50 [53]: 2.58 µM | TGI [53]: 7.19 µM | GI50 [54]: 2.69 µM | TGI [54]: 5.11 µM | GI50 [55]: 4.2 µM | TGI [55]: 12 µM | GI50 [56]: 3.09 µM | TGI [56]: > 16.3 µM | GI50 [57]: 3.87 µM | TGI [57]: 12.1 µM | GI50 [58]: 2.87 µM | TGI [58]: 6.76 µM

O=C(c1ccc(OCCN2CCOCC2)cc1)C1[C@H](c2ccc(Cl)cc2)[C@@H](c2ccccc2)NC12C(=O)Nc1ccc(Cl)cc12 (some centres not stated)
GI50 [1]: 6.75 µM | TGI [1]: 13 µM | GI50 [2]: 10.6 µM | TGI [2]: 27.1 µM | GI50 [3]: 8.98 µM | TGI [3]: 25.4 µM | GI50 [4]: 8.8 µM | TGI [4]: 19.6 µM | GI50 [5]: 7.11 µM | TGI [5]: 14.3 µM | GI50 [6]: 7.93 µM | TGI [6]: 20.3 µM | GI50 [7]: 10.9 µM | TGI [7]: 28.2 µM | GI50 [8]: 7.8 µM | TGI [8]: 14.6 µM | GI50 [9]: 8.24 µM | TGI [9]: 23.2 µM | GI50 [10]: 8.58 µM | TGI [10]: 23.5 µM | GI50 [11]: 10.3 µM | TGI [11]: 29.9 µM | GI50 [12]: 7.6 µM | TGI [12]: 14.9 µM | GI50 [13]: 6.14 µM | TGI [13]: 13.6 µM | GI50 [14]: 9.69 µM | TGI [14]: 34.2 µM | GI50 [15]: 7.53 µM | TGI [15]: 15.9 µM | GI50 [16]: 7.25 µM | TGI [16]: 23.7 µM | GI50 [17]: 10.6 µM | TGI [17]: 34.9 µM | GI50 [18]: 11.9 µM | TGI [18]: 40.9 µM | GI50 [19]: 12.8 µM | TGI [19]: > 47.3 µM | GI50 [20]: 7.53 µM | TGI [20]: 27.9 µM | GI50 [21]: 7.35 µM | TGI [21]: 13.7 µM | GI50 [22]: 8.31 µM | TGI [22]: 18.2 µM | GI50 [23]: 8.9 µM | TGI [23]: 19.1 µM | GI50 [24]: 10.6 µM | TGI [24]: > 47.3 µM | GI50 [25]: 6.85 µM | TGI [25]: 18.7 µM | GI50 [26]: 8.4 µM | TGI [26]: 27.8 µM | GI50 [27]: 6.42 µM | TGI [27]: 12.8 µM | GI50 [28]: 8.04 µM | TGI [28]: 15.8 µM | GI50 [29]: 7.43 µM | TGI [29]: 20.4 µM | GI50 [30]: 11 µM | TGI [30]: 39.2 µM | GI50 [31]: 9.58 µM | TGI [31]: 23.9 µM | GI50 [32]: 8 µM | TGI [32]: 15 µM | GI50 [33]: 8.02 µM | TGI [33]: 15.9 µM | GI50 [34]: 9.96 µM | TGI [34]: 33.7 µM | GI50 [35]: 7.85 µM | TGI [35]: 15.8 µM | GI50 [36]: 13.6 µM | TGI [36]: > 47.3 µM | GI50 [37]: 8.43 µM | TGI [37]: 16.8 µM | GI50 [38]: 8.24 µM | TGI [38]: 20.1 µM | GI50 [39]: 12.6 µM | TGI [39]: > 47.3 µM | GI50 [40]: 8.1 µM | TGI [40]: 39.5 µM | GI50 [41]: 4.11 µM | TGI [41]: > 47.3 µM | GI50 [42]: 9.46 µM | TGI [42]: 19.5 µM | GI50 [43]: 7.62 µM | TGI [43]: 14.4 µM | GI50 [44]: 7.85 µM | TGI [44]: 15.7 µM | GI50 [45]: 7.49 µM | TGI [45]: 16.7 µM | GI50 [46]: 8.77 µM | TGI [46]: 18.9 µM | GI50 [47]: 7.15 µM | TGI [47]: 14.6 µM | GI50 [48]: 7.41 µM | TGI [48]: 14.4 µM | GI50 [49]: 15.4 µM | TGI [49]: > 47.3 µM | GI50 [50]: 8.06 µM | TGI [50]: 19.5 µM | GI50 [51]: 8.46 µM | TGI [51]: 27.2 µM | GI50 [52]: 9.75 µM | TGI [52]: 21.3 µM | GI50 [53]: 7.88 µM | TGI [53]: 21.6 µM | GI50 [54]: 5.4 µM | TGI [54]: 11.8 µM | GI50 [55]: 12 µM | TGI [55]: 34.9 µM | GI50 [56]: 13.5 µM | TGI [56]: > 47.3 µM | GI50 [57]: 11.1 µM | TGI [57]: 31.2 µM | GI50 [58]: 8.72 µM | TGI [58]: 18.2 µM
